Laboratory results: article PMC2692652 (Biochemistry, 2009)

Legend:
R451A M. tb PGDH = R451A M. tb PGDH (Mycobacterium tuberculosis, UniProt P9WNX3, R450A); type: biochemical; settings: pH 7.5
R501A M. tb PGDH [1] = target: T1, R501A M. tb PGDH (Mycobacterium tuberculosis, UniProt P9WNX3, R500A); type: biochemical; settings: pH 7.5
K439A M. tb PGDH [2] = target: T2, K439A M. tb PGDH (Mycobacterium tuberculosis, UniProt P9WNX3, K438A); type: biochemical; settings: pH 7.5
H447A M. tb PGDH [3] = target: T3, H447A M. tb PGDH (Mycobacterium tuberculosis, UniProt P9WNX3, H446A); type: biochemical; settings: pH 7.5
R446A M. tb PGDH [4] = target: T4, R446A M. tb PGDH (Mycobacterium tuberculosis, UniProt P9WNX3, R445A); type: biochemical; settings: pH 7.5
[5] = target: R446A-R501A-K439A M. tb PGDH (Mycobacterium tuberculosis, UniProt P9WNX3, K438A/R445A/R500A); type: biochemical; settings: pH 7.5
[6] = target: T5, R451A-R501A-K439A M. tb PGDH (Mycobacterium tuberculosis, UniProt P9WNX3, K438A/R450A/R500A); type: biochemical
W29F M. tb PGDH [7] = target: T6, W29F M. tb PGDH (Mycobacterium tuberculosis, UniProt P9WNX3, W28F); type: biochemical; settings: pH 7.5
W327F M. tb PGDH [8] = target: T7, W327F M. tb PGDH (Mycobacterium tuberculosis, UniProt P9WNX3, W326F); type: biochemical; settings: pH 7.5
[9] = target: T5, R451A-R501A-K439A M. tb PGDH; type: biochemical; settings: pH 7.5
W29F M. tb PGDH [10] = target: T6, W29F M. tb PGDH; type: binding; settings: pH 7.5
W327F M. tb PGDH [11] = target: T7, W327F M. tb PGDH; type: binding; settings: pH 7.5
[12] = target: T5, R451A-R501A-K439A M. tb PGDH; type: binding; settings: pH 7.5
[13] = system: native and mutant M. tb PGDH; test: NADH dependence of steady state activity, summary over enzymes; type: biochemical, Mycobacterium tuberculosis
R501A M. tb PGDH [14] = target: T1, R501A M. tb PGDH; settings: read-out: Ki, HPAP (substrate inhibition); cited from earlier work
K439A M. tb PGDH [15] = target: T2, K439A M. tb PGDH; settings: read-out: Ki, HPAP (substrate inhibition); cited from earlier work
H447A M. tb PGDH [16] = target: T3, H447A M. tb PGDH; settings: read-out: Ki, HPAP (substrate inhibition); cited from earlier work
R446A M. tb PGDH [17] = target: T4, R446A M. tb PGDH; settings: read-out: Ki, HPAP (substrate inhibition); cited from earlier work

Molecule: N[C@@H](CO)C(=O)O [L-serine]
- n (Hill coefficient), serine inhibition, High Substrate (R451A M. tb PGDH): 1.7 ± 0.3
- n (Hill coefficient), serine inhibition, Peak Substrate (R451A M. tb PGDH): 1.6 ± 0.1
- n (Hill coefficient), serine inhibition, High Substrate (R501A M. tb PGDH [1]): 1.7 ± 0.1
- n (Hill coefficient), serine inhibition, Peak Substrate (R501A M. tb PGDH [1]): 1.5 ± 0.1
- n (Hill coefficient), serine inhibition, High Substrate (K439A M. tb PGDH [2]): 1.2 ± 0.1
- n (Hill coefficient), serine inhibition, Peak Substrate (K439A M. tb PGDH [2]): 1.2 ± 0.1
- n (Hill coefficient), serine inhibition, High Substrate (H447A M. tb PGDH [3]): 1.5 ± 0.1
- n (Hill coefficient), serine inhibition, Peak Substrate (H447A M. tb PGDH [3]): 1.7 ± 0.1
- n (Hill coefficient), serine inhibition, High Substrate (R446A M. tb PGDH [4]): 0.9 ± 0.1
- n (Hill coefficient), serine inhibition, Peak Substrate (R446A M. tb PGDH [4]): 1.3 ± 0.1
- n (Hill coefficient), serine inhibition, Peak Substrate [5]: 1.0 ± 0.1
- Inhibition of catalytic activity by serine [6]: unable to be inhibited

Molecule: NADH
- K0.5, Activity vs NADH (W29F M. tb PGDH [7]): 99 ± 2 µM
- n (Hill coefficient), Activity vs NADH (W29F M. tb PGDH [7]): 2.2 ± 0.1
- K0.5, Activity vs NADH (W327F M. tb PGDH [8]): 89 ± 4 µM
- n (Hill coefficient), Activity vs NADH (W327F M. tb PGDH [8]): 2.0 ± 0.1
- K0.5, Activity vs NADH [9]: 83 ± 13 µM
- n (Hill coefficient), Activity vs NADH [9]: 1.5 ± 0.2
- K0.5, FRET vs NADH (W29F M. tb PGDH [10]): 1.9 ± 0.1 µM
- n (Hill coefficient), FRET vs NADH (W29F M. tb PGDH [10]): 1.2 ± 0.1
- K0.5, FRET vs NADH (W327F M. tb PGDH [11]): 3.0 ± 0.3 µM
- n (Hill coefficient), FRET vs NADH (W327F M. tb PGDH [11]): 1.7 ± 0.3
- K0.5, FRET vs NADH [12]: 3.6 ± 0.1 µM
- n (Hill coefficient), FRET vs NADH [12]: 2.3 ± 0.2
- K0.5 for NADH for activity [13]: 80 to 100 mM

Molecule: hydroxypyruvic acid phosphate [HPAP]
- Ki (R501A M. tb PGDH [14]): 1.02 ± 0.03 mM
- Ki (K439A M. tb PGDH [15]): 54 ± 4 µM
- Ki (H447A M. tb PGDH [16]): 870 ± 50 µM
- Ki (R446A M. tb PGDH [17]): 289 ± 15 µM
